Laboratory results published in patent US11666558B2, “Methods of treating intraocular pressure with activators of Tie-2” (EyePoint Pharmaceuticals, Inc., priority 2015, dated 2023).
Where two headings read alike, the source gives them in different places.

Assay: Ocular tissue concentrations (aqueous humor, vitreous humor, iris, retina, choroid, cornea) after topical ocular, subcutaneous and intravitreal administration
Format: in vivo, New Zealand White rabbits
Settings: for concentration at 0.5 h / concentration at 0.5 hr / concentration at 1 h / concentration at 2 h / concentration at 4 h: subcutaneous, 5 mg/kg/dose; for Cornea Conc. (ng/mL) OS: TABLE 16: Cornea homogenate
Procedure: To measure the concentration of Compound 1 in plasma and ocular tissues following topical ocular, subcutaneous, and intravitreal administration, New Zealand White rabbits were administered Compound 1, and plasma and ocular samples were collected at pre-determined time points. Compound 1 formulations were prepared fresh on each day of dosing.
Ocular tissue samples from both eyes of each animal were collected and weights were recorded. Plasma and ocular tissue sample concentrations of Compound 1 were determined by LC-MS/MS.
New Zealand White rabbits weighing 2.5 to 3.5 kg were used on this study. Rabbits were housed one per cage. Animals were not fasted and only healthy animals with no ocular illness were used. Two rabbits per group were sacrificed at each of four ocular tissue sampling time points for a total of eight rabbits per group.
Animals were anesthetized for ocular (topical) and intravitreal dosing following the 12IA7 IACUC protocol. Each rabbit received a bolus dose of test formulation either via topical ocular administration 3 times daily on Days 1 and 2 (at 0, 6, and 12 hours), and once on Day 3 (at 0 hours) into both eyes; via intravitreal administration into both eyes once on Day 1 (at 0 hours); or via subcutaneous administration 2 times daily on Days 1 and 2 (at 0 and 8 hours) and once daily on Day 3 (at 0 hours). Doses were given within an approximately 1 hour window each day where applicable.
On Day 1, for intravitreal administration, or on Day 3, for topical ocular and subcutaneous administration, at the appropriate ocular tissue collection time points, animals were euthanized and both eyes were enucleated immediately. Following enucleation, each eye was rinsed with phosphate-buffered saline. Ocular tissue samples from both eyes of each animal were collected at predetermined time points and weights were recorded. All the samples were frozen immediately on dry ice, and stored at −60° C. to −80° C. pending bioanalysis.
An LC-MS/MS method was developed for the determination of Compound 1 in rabbit aqueous tissues (plasma, aqueous and vitreous humor) and solid ocular tissue samples. A pre-study standard curve was analyzed to determine the specificity, range, and lower limit of quantitation of the method. Plasma and tissue homogenate study samples were extracted and analyzed. All the samples were treated identically to the standards.
One eight-point standard curve was used in each analytical batch. To be accepted, each batch must have had at least five of eight standards with accuracy within ±20% of nominal, except at the lower limit of quantification (LLOQ), where ±25% was acceptable.
Concentration versus time data is plotted in FIGS. 3-16. All data are expressed as ng/g of the free drug. Samples that were below the limit of quantitation (0.2 ng/mL) were not used in the calculation of averages.

Compound: COC(=O)N[C@@H](Cc1ccccc1)C(=O)N[C@@H](Cc1ccc(NS(=O)(=O)O)cc1)c1csc(-c2cccs2)n1 [Compound 1]
- concentration at 48 h (New Zealand White, rabbit, retina, other: intravitreal, 2.5 mg/eye, Retina, 48 hr, sodium salt, intravitreal 2.5 mg/eye, Group 4, read-out: Retina Avg.): 72600 ng/g
- concentration at 72 h (New Zealand White, rabbit, retina, other: intravitreal, 2.5 mg/eye, Retina, OD, sodium salt, intravitreal 2.5 mg/eye, Group 4, read-out: Retina Conc. (ng/g) OD): 8250 ng/g
- concentration at 72 h (New Zealand White, rabbit, retina, other: intravitreal, 2.5 mg/eye, Retina, OS, sodium salt, intravitreal 2.5 mg/eye, Group 4, read-out: Retina Conc. (ng/g) OS): 4070 ng/g
- concentration at 72 h (New Zealand White, rabbit, retina, other: intravitreal, 2.5 mg/eye, Retina, average, intravitreal 2.5 mg/eye (group 5), read-out: Avg.): 109000 ng/g
- concentration at 72 h (New Zealand White, rabbit, retina, other: intravitreal, 2.5 mg/eye, Retina, left eye, intravitreal 2.5 mg/eye (group 5), individual animals, read-out: Conc. (ng/g) OS): 119000 ng/g
- concentration at 72 h (New Zealand White, rabbit, retina, other: intravitreal, 2.5 mg/eye, Retina, right eye, intravitreal 2.5 mg/eye (group 5), individual animals, read-out: Conc. (ng/g) OD): 109000 ng/g
- concentration at 72 h (New Zealand White, rabbit, retina, other: intravitreal, 2.5 mg/eye, Retina, sodium salt, intravitreal 2.5 mg/eye, Group 4, read-out: Retina Avg.): 6060 ng/g
- concentration at 0.5 h (New Zealand White, rabbit, retina, Retina, OD, sodium salt, subcutaneous 5 mg/kg/dose, Group 2, read-out: Retina Conc. (ng/g) OD): 30.5 ng/g
- concentration at 0.5 hr (New Zealand White, rabbit, retina, Retina, OS, sodium salt, subcutaneous 5 mg/kg/dose, Group 2, read-out: Retina Conc. (ng/g) OS): 48 ng/g
- concentration at 0.5 h (New Zealand White, rabbit, retina, Retina, free acid, subcutaneous 5 mg/kg/dose, Group 3, read-out: Retina Average): 38.7 ng/g
- concentration at 0.5 hr (New Zealand White, rabbit, retina, Retina, sodium salt, subcutaneous 5 mg/kg/dose, Group 2, read-out: Retina Average): 40.5 ng/g
- concentration at 1 h (New Zealand White, rabbit, retina, Retina, 1 hr, OD, free acid, subcutaneous 5 mg/kg/dose, Group 3, read-out: Retina Conc. (ng/g) OD): 10.4 ng/g
- concentration at 1 h (New Zealand White, rabbit, retina, Retina, 1 hr, OD, sodium salt, subcutaneous 5 mg/kg/dose, Group 2, read-out: Retina Conc. (ng/g) OD): 22.4 ng/g
- concentration at 1 h (New Zealand White, rabbit, retina, Retina, 1 hr, OS, free acid, subcutaneous 5 mg/kg/dose, Group 3, read-out: Retina Conc. (ng/g) OS): 6.93 ng/g
- concentration at 1 h (New Zealand White, rabbit, retina, Retina, 1 hr, OS, sodium salt, subcutaneous 5 mg/kg/dose, Group 2, read-out: Retina Conc. (ng/g) OS): 43.2 ng/g
- concentration at 1 h (New Zealand White, rabbit, retina, Retina, 1 hr, free acid, subcutaneous 5 mg/kg/dose, Group 3, read-out: Retina Average): 10.2 ng/g
- concentration at 1 h (New Zealand White, rabbit, retina, Retina, 1 hr, sodium salt, subcutaneous 5 mg/kg/dose, Group 2, read-out: Retina Average): 32.6 ng/g
- concentration at 2 h (New Zealand White, rabbit, retina, Retina, 2 hr, OD, free acid, subcutaneous 5 mg/kg/dose, Group 3, read-out: Retina Conc. (ng/g) OD): 6.31 ng/g
- concentration at 2 h (New Zealand White, rabbit, retina, Retina, 2 hr, OD, sodium salt, subcutaneous 5 mg/kg/dose, Group 2, read-out: Retina Conc. (ng/g) OD): 15 ng/g
- concentration at 2 h (New Zealand White, rabbit, retina, Retina, 2 hr, OS, free acid, subcutaneous 5 mg/kg/dose, Group 3, read-out: Retina Conc. (ng/g) OS): 6.93 ng/g
- concentration at 2 h (New Zealand White, rabbit, retina, Retina, 2 hr, OS, sodium salt, subcutaneous 5 mg/kg/dose, Group 2, read-out: Retina Conc. (ng/g) OS): 17.8 ng/g
- concentration at 2 h (New Zealand White, rabbit, retina, Retina, 2 hr, free acid, subcutaneous 5 mg/kg/dose, Group 3, read-out: Retina Average): 10.5 ng/g
- concentration at 2 h (New Zealand White, rabbit, retina, Retina, 2 hr, sodium salt, subcutaneous 5 mg/kg/dose, Group 2, read-out: Retina Average): 16.4 ng/g
- concentration at 4 h (New Zealand White, rabbit, retina, Retina, 4 hr, OD, sodium salt, subcutaneous 5 mg/kg/dose, Group 2, read-out: Retina Conc. (ng/g) OD): 19.7 ng/g
- concentration at 4 h (New Zealand White, rabbit, retina, Retina, 4 hr, free acid, subcutaneous 5 mg/kg/dose, Group 3, read-out: Retina Average): 35.3 ng/g
- concentration at 4 h (New Zealand White, rabbit, retina, Retina, 4 hr, sodium salt, subcutaneous 5 mg/kg/dose, Group 2, read-out: Retina Average): 19.7 ng/g
- concentration at 0.5 h (New Zealand White, rabbit, retina, TABLE 16: Retina, free acid, subcutaneous 5 mg/kg/dose, Group 3, read-out: Retina Average): 38.7 ng/g
- concentration at 1 h (New Zealand White, rabbit, retina, TABLE 16: Retina, 1 hr, OD, free acid, subcutaneous 5 mg/kg/dose, Group 3, read-out: Retina Conc. (ng/g) OD): 10.4 ng/g
- concentration at 1 h (New Zealand White, rabbit, retina, TABLE 16: Retina, 1 hr, OS, free acid, subcutaneous 5 mg/kg/dose, Group 3, read-out: Retina Conc. (ng/g) OS): 6.93 ng/g
- concentration at 1 h (New Zealand White, rabbit, retina, TABLE 16: Retina, 1 hr, free acid, subcutaneous 5 mg/kg/dose, Group 3, read-out: Retina Average): 10.2 ng/g
- concentration at 2 h (New Zealand White, rabbit, retina, TABLE 16: Retina, 2 hr, OD, free acid, subcutaneous 5 mg/kg/dose, Group 3, read-out: Retina Conc. (ng/g) OD): 6.31 ng/g
- concentration at 2 h (New Zealand White, rabbit, retina, TABLE 16: Retina, 2 hr, OS, free acid, subcutaneous 5 mg/kg/dose, Group 3, read-out: Retina Conc. (ng/g) OS): 6.93 ng/g
- concentration at 2 h (New Zealand White, rabbit, retina, TABLE 16: Retina, 2 hr, free acid, subcutaneous 5 mg/kg/dose, Group 3, read-out: Retina Average): 10.5 ng/g
- concentration at 4 h (New Zealand White, rabbit, retina, TABLE 16: Retina, 4 hr, free acid, subcutaneous 5 mg/kg/dose, Group 3, read-out: Retina Average): 35.3 ng/g
- Retina Conc. (ng/mL) OD (Retina homogenate, 4 hr, OD, free acid, subcutaneous 5 mg/kg/dose, Group 3): BLOQ (Below the limit of quantitation (0.5 ng/mL))
- Retina Conc. (ng/mL) OS (Retina homogenate, 4 hr, OS, sodium salt, subcutaneous 5 mg/kg/dose, Group 2): BLOQ (Below the limit of quantitation (0.5 ng/mL))
- Cornea Conc. (ng/mL) OS (1 hr, OS, free acid, subcutaneous 5 mg/kg/dose, Group 3): BLOQ (Below the limit of quantitation (0.5 ng/mL))
- Cornea Conc. (ng/mL) OS (2 hr, OS, free acid, subcutaneous 5 mg/kg/dose, Group 3): BLOQ (Below the limit of quantitation (0.5 ng/mL))
- Retina Conc. (ng/mL) OD (TABLE 16: Retina homogenate, 4 hr, OD, free acid, subcutaneous 5 mg/kg/dose, Group 3): BLOQ (Below the limit of quantitation (0.5 ng/mL))
- rank order of exposure in aqueous and vitreous humor by route (intravitreal, topical ocular, subcutaneous administration): intravitreal>>topical ocular>subcutaneous administration
